Assay results published in ChEMBL document CHEMBL5360518, “Discovery of a novel photoswitchable PI3K inhibitor toward optically-controlled anticancer activity” (Bioorg Med Chem, 2022).
One block for each molecule: values may come before it. The source made the active and inactive calls. The calls are words filed in the database; no cut-off is given here.

Key:
[1] = biological target: RAC-alpha serine/threonine-protein kinase (Homo sapiens) (UniProt P31749); test: Inhibition of AKT phosphorylation at T308 residue in human HGC-27 cells harboring PI3KCA mutation and overactive PI3K pathway by Western blot analysis; type: cell-based; conditions: dose 0.08-0.4 µM
HGC-27 [2] = test: Inhibition of colony formation in human HGC-27 cells harboring PI3KCA mutation and overactive PI3K pathway assessed as reduction in number of colonies incubated for 10 days in presence of irradiation at 365 nm UV light for 2 mins once every 8 hrs by crystal violet staining based assay; type: functional, cell-based; conditions: dose 0.08-0.4 µM, time 10.0 day
HGC-27 [3] = test: (§1) Induction of apoptosis in human HGC-27 cells harboring PI3KCA mutation and overactive PI3K pathway assessed as late apoptotic cells at 0.4 uM incubated for 48 hrs under irradiation with 365 nm UV light 2 mins once for every 8 hrs by Annexin V-FITC/PI staining based flow cytometry analysis (reference value: 3.39%); type: functional
HGC-27 [4] = test: Inhibition of cell migration in human HGC-27 cells harboring PI3KCA mutation and overactive PI3K pathway assessed as reduction in migratory ability at 0.08 to 0.4 uM incubated for 16 hrs in presence of irradiation at 365 nm UV light for 2 mins once every 8 hrs by crystal violet staining based assay; type: functional; conditions: dose 0.08-0.4 µM
[5] = biological target: T1, Ribosomal protein S6 kinase (Homo sapiens) (UniProt P51812+Q9UBS0+O75676+Q15349+O75582+P23443+Q9UK32+Q15418); test: Inhibition of S6 phosphorylation in human HGC-27 cells harboring PI3KCA mutation and overactive PI3K pathway at 0.08 to 0.4 uM compound irradiated for 5 mins at 520 nm by Western blot analysis; type: cell-based; conditions: dose 0.08-0.4 µM
HGC-27 [6] = test: (§2) Antitumor activity against CM-Dil labeled human HGC-27 cells implanted in yolk sac of Albino wild type zebrafish embryos assessed as inhibition of tumor growth by measuring reduction in fluorescence density at 0.391 to 0.781 ng per fish incubated for 48 hrs in presence of irradiation with 365 nm UV light by fluorescence microscopic analysis; type: functional, cell-based; conditions: dose 0.391-0.781 ng
NCI-H460 [7] = test: as §1, with “NCI-H460” for “HGC-27”, “early” for “late”, “0.08” for “0.4”, “2.6%)” for “3.39%)”; type: functional
[8] = biological target: RAC-alpha serine/threonine-protein kinase (Homo sapiens) (UniProt P31749); test: Inhibition of AKT phosphorylation at S473 residue in human HGC-27 cells harboring PI3KCA mutation and overactive PI3K pathway by Western blot analysis; type: cell-based; conditions: dose 0.08-0.4 µM
[9] = biological target: RAC-alpha serine/threonine-protein kinase (Homo sapiens) (UniProt P31749); test: Inhibition of AKT phosphorylation at T308 residue in human HGC-27 cells harboring PI3KCA mutation and overactive PI3K pathway at 0.08 to 0.4 uM compound irradiated for 5 mins at 520 nm by Western blot analysis; type: cell-based; conditions: dose 0.08-0.4 µM
[10] = biological target: RAC-alpha serine/threonine-protein kinase (Homo sapiens) (UniProt P31749); test: Inhibition of AKT phosphorylation at S473 residue in human HGC-27 cells harboring PI3KCA mutation and overactive PI3K pathway at 0.08 to 0.4 uM compound irradiated for 5 mins at 520 nm by Western blot analysis; type: cell-based; conditions: dose 0.08-0.4 µM
NCI-H460 [11] = test: as §1, with “NCI-H460” for “HGC-27”, “0.08” for “0.4”, “2.27%)” for “3.39%)”; type: functional
HGC-27 [12] = test: as §1, with “early” for “late”, “0.08” for “0.4”, “2.26%)” for “3.39%)”; type: functional
[13] = biological target: T1, Ribosomal protein S6 kinase (Homo sapiens); test: Inhibition of S6 phosphorylation in human HGC-27 cells harboring PI3KCA mutation and overactive PI3K pathway by Western blot analysis; type: cell-based; conditions: dose 0.08-0.4 µM
HGC-27 [14] = test: as §1, with “0.08” for “0.4”; type: functional
NCI-H460 [15] = test: as §1, with “NCI-H460” for “HGC-27”, “early” for “late”, “2.6%)” for “3.39%)”; type: functional
NCI-H460 [16] = test: as §1, with “NCI-H460” for “HGC-27”, “2.27%)” for “3.39%)”; type: functional
HGC-27 [17] = test: as §1, with “early” for “late”, “2.26%)” for “3.39%)”; type: functional
[18] = biological target: T2, Phosphatidylinositol 4,5-bisphosphate 3-kinase catalytic subunit alpha isoform (Homo sapiens, UniProt P42336); test: Inhibition of PI3Kalpha (unknown origin) using PIP2 as substrate incubated for 1 hr in presence of ATP under irradiation with 365 nm UV light by ADP-Glo luminescent assay
NCI-H460 [19] = test: Induction of apoptosis in human NCI-H460 cells harboring PI3KCA mutation and overactive PI3K pathway assessed as early apoptotic cells at 0.4 uM incubated for 48 hrs under dark condition by Annexin V-FITC/PI staining based flow cytometry analysis (reference value: 2.6%); type: functional
NCI-H460 [20] = test: Induction of apoptosis in human NCI-H460 cells harboring PI3KCA mutation and overactive PI3K pathway assessed as late apoptotic cells at 0.4 uM incubated for 48 hrs under dark condition by Annexin V-FITC/PI staining based flow cytometry analysis (reference value: 2.27%); type: functional
NCI-H460 [21] = test: Induction of apoptosis in human NCI-H460 cells harboring PI3KCA mutation and overactive PI3K pathway assessed as late apoptotic cells at 0.08 uM incubated for 48 hrs under dark condition by Annexin V-FITC/PI staining based flow cytometry analysis (reference value: 2.27%); type: functional
[22] = biological target: T1, Ribosomal protein S6 kinase (Homo sapiens); test: Inhibition of S6 phosphorylation in human HGC-27 cells harboring PI3KCA mutation and overactive PI3K pathway at 0.08 to 0.4 uM compound irradiated for 2 mins at 365 nm by Western blot analysis; type: cell-based; conditions: dose 0.08-0.4 µM
HGC-27 [23] = test: Induction of apoptosis in human HGC-27 cells harboring PI3KCA mutation and overactive PI3K pathway assessed as late apoptotic cells at 0.08 uM incubated for 48 hrs under dark condition by Annexin V-FITC/PI staining based flow cytometry analysis (reference value: 3.39%); type: functional
[24] = biological target: RAC-alpha serine/threonine-protein kinase (Homo sapiens) (UniProt P31749); test: Inhibition of AKT phosphorylation at S473 residue in human HGC-27 cells harboring PI3KCA mutation and overactive PI3K pathway at 0.08 to 0.4 uM compound irradiated for 2 mins at 365 nm by Western blot analysis; type: cell-based; conditions: dose 0.08-0.4 µM
HGC-27 [25] = test: Inhibition of colony formation in human HGC-27 cells harboring PI3KCA mutation and overactive PI3K pathway assessed as reduction in number of colonies incubated for 10 days under dark condition by crystal violet staining based assay; type: functional, cell-based; conditions: dose 0.08-0.4 µM, time 10.0 day
[26] = biological target: T2, Phosphatidylinositol 4,5-bisphosphate 3-kinase catalytic subunit alpha isoform; test: Inhibition of PI3Kalpha (unknown origin) using PIP2 as substrate incubated for 1 hr in presence of ATP under dark condition by ADP-Glo luminescent assay
HGC-27 [27] = test: Induction of apoptosis in human HGC-27 cells harboring PI3KCA mutation and overactive PI3K pathway assessed as early apoptotic cells at 0.08 uM incubated for 48 hrs under dark condition by Annexin V-FITC/PI staining based flow cytometry analysis (reference value: 2.26%); type: functional
NCI-H460 [28] = test: Induction of apoptosis in human NCI-H460 cells harboring PI3KCA mutation and overactive PI3K pathway assessed as early apoptotic cells at 0.08 uM incubated for 48 hrs under dark condition by Annexin V-FITC/PI staining based flow cytometry analysis (reference value: 2.6%); type: functional
[29] = biological target: RAC-alpha serine/threonine-protein kinase (Homo sapiens) (UniProt P31749); test: Inhibition of AKT phosphorylation at T308 residue in human HGC-27 cells harboring PI3KCA mutation and overactive PI3K pathway at 0.08 to 0.4 uM compound irradiated for 2 mins at 365 nm by Western blot analysis; type: cell-based; conditions: dose 0.08-0.4 µM
HGC-27 [30] = test: Induction of apoptosis in human HGC-27 cells harboring PI3KCA mutation and overactive PI3K pathway assessed as early apoptotic cells at 0.4 uM incubated for 48 hrs under dark condition by Annexin V-FITC/PI staining based flow cytometry analysis (reference value: 2.26%); type: functional
HGC-27 [31] = test: Induction of apoptosis in human HGC-27 cells harboring PI3KCA mutation and overactive PI3K pathway assessed as late apoptotic cells at 0.4 uM incubated for 48 hrs under dark condition by Annexin V-FITC/PI staining based flow cytometry analysis (reference value: 3.39%); type: functional
HGC-27 [32] = test: as §2, with “dark condition” for “presence of irradiation with 365 nm UV light”; type: functional; conditions: dose 0.391-0.781 ng
HGC-27 [33] = test: Inhibition of cell migration in human HGC-27 cells harboring PI3KCA mutation and overactive PI3K pathway assessed as reduction in migratory ability at 0.08 to 0.4 uM incubated for 16 hrs under dark condition by crystal violet staining based assay; type: functional; conditions: dose 0.08-0.4 µM

Sequence of RAC-alpha serine/threonine-protein kinase (Homo sapiens) (P31749 whole entry): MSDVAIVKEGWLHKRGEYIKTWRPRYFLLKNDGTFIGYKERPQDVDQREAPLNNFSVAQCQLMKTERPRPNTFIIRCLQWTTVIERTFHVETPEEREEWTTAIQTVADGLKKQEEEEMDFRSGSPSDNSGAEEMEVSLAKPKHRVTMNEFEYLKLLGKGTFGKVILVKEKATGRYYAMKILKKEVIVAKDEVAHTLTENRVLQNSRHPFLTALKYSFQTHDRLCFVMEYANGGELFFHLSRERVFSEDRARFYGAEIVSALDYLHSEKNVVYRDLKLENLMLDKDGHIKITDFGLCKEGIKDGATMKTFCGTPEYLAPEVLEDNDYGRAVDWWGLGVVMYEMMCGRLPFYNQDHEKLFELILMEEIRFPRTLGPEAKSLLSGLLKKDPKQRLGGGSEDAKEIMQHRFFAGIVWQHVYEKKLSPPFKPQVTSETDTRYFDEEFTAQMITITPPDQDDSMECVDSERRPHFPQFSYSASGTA
T2 sequence (P42336 whole entry, canonical isoform): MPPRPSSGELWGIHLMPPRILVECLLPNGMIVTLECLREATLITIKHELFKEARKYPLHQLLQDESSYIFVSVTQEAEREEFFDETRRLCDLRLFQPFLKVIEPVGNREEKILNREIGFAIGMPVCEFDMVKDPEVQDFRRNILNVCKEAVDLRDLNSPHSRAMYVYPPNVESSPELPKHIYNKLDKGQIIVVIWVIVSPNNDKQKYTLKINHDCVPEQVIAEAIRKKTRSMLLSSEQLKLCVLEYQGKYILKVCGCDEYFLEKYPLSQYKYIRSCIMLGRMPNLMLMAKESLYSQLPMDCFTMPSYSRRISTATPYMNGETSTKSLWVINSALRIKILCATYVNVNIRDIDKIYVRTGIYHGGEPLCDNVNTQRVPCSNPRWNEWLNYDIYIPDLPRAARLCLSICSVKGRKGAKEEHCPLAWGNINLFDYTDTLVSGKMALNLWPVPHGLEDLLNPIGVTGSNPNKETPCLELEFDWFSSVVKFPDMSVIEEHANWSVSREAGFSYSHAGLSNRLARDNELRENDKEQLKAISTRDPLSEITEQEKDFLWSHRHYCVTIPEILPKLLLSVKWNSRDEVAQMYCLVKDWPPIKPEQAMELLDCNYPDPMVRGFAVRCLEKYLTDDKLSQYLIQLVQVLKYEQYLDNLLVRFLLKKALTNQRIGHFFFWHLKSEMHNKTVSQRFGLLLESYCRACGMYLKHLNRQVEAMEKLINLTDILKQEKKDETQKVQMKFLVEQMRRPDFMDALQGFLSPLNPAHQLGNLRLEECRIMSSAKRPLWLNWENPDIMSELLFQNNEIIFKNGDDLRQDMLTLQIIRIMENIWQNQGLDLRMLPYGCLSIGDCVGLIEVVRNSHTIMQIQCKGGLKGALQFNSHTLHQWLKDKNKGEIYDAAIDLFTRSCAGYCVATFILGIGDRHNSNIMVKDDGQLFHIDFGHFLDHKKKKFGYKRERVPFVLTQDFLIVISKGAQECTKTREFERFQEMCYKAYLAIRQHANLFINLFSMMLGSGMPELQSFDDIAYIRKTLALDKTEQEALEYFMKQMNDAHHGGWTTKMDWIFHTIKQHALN

- inhibition [1]: Dose-Dependent Effect
- inhibition [5]: Active
- inhibition [8]: Dose-Dependent Effect
- inhibition [9]: Active
- inhibition [10]: Active
- inhibition [13]: Dose-Dependent Effect
- IC50 [18]: 5.24 nM
Compound: COc1ncc(-c2cc(Oc3ccc(/N=N\c4ccc(Oc5cc(-c6cnc(OC)c(NS(=O)(=O)c7ccc(F)cc7F)c6)cc6c(C)ncnc56)cc4)cc3)c3ncnc(C)c3c2)cc1NS(=O)(=O)c1ccc(F)cc1F
- inhibition (HGC-27 [2]): Dose-Dependent Effect
- Activity (HGC-27 [3]): 14.28%
- inhibition (HGC-27 [4]): Active
- Activity (HGC-27 [6]): Active
- Activity (NCI-H460 [7]): 5.44%
- Activity (NCI-H460 [11]): 18.8%
- Activity (HGC-27 [12]): 33.67%
- Activity (HGC-27 [14]): 3.6%
- Activity (NCI-H460 [15]): 6.05%
- Activity (NCI-H460 [16]): 26.4%
- Activity (HGC-27 [17]): 66.74%

- inhibition [1]: Dose-Dependent Effect
- inhibition [22]: Active
- inhibition [8]: Dose-Dependent Effect
- inhibition [24]: Active
- IC50 [26]: 17.7 nM
- inhibition [13]: Dose-Dependent Effect
- inhibition [29]: Active
Compound: COc1ncc(-c2cc(Oc3ccc(/N=N/c4ccc(Oc5cc(-c6cnc(OC)c(NS(=O)(=O)c7ccc(F)cc7F)c6)cc6c(C)ncnc56)cc4)cc3)c3ncnc(C)c3c2)cc1NS(=O)(=O)c1ccc(F)cc1F
- Activity (NCI-H460 [19]): 2.36%
- Activity (NCI-H460 [20]): 4.84%
- Activity (NCI-H460 [21]): 3.17%
- Activity (HGC-27 [23]): 5.11%
- inhibition (HGC-27 [25]): Dose-Dependent Effect
- Activity (HGC-27 [27]): 7.28%
- Activity (NCI-H460 [28]): 2.69%
- Activity (HGC-27 [30]): 14.86%
- Activity (HGC-27 [31]): 15.95%
- Activity (HGC-27 [32]): Active
- inhibition (HGC-27 [33]): Active
